This is an account of results in ChEMBL document CHEMBL4619721, “Design, synthesis & biological evaluation of ferulic acid-based small molecule inhibitors against tumor-associated carbonic anhydrase IX” (Bioorg Med Chem, 2020).

One series has as its target Carbonic anhydrase 2 (Homo sapiens, UniProt P00918). As to the kind of experiment: Inhibition of human carbonic anhydrase 2 using p-nitrophenyl acetate as substrate by UV-VIS spectrophotometric analysis.
Series [1] concerns the target T1, Carbonic anhydrase 9 (Homo sapiens, UniProt Q16790).
Description: Inhibition of human carbonic anhydrase 9 using p-nitrophenyl acetate as substrate by UV-VIS spectrophotometric analysis
The target in series [2] is Carbonic anhydrase 5A, mitochondrial (Homo sapiens, UniProt P35218). As to the kind of experiment: Inhibition of human carbonic anhydrase 5A using p-nitrophenyl acetate as substrate by UV-VIS spectrophotometric analysis.
Chain of Carbonic anhydrase 5A, mitochondrial (P35218 whole entry): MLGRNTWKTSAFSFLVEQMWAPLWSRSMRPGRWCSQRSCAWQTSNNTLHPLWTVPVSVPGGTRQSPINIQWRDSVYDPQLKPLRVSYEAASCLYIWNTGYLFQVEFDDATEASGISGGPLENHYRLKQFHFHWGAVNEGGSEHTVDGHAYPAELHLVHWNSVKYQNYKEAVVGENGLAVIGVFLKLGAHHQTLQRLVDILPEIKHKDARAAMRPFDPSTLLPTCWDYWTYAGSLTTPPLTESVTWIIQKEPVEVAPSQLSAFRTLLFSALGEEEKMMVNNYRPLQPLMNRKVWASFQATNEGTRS
Series [3] concerns the target T1, Carbonic anhydrase 9. As to the kind of experiment: Binding affinity to human carbonic anhydrase 9 assessed as dissociation constant by isothermal titration calorimetric assay. (Isothermal titration calorimetry measures the heat released or taken up as one component is titrated into another.)
The target of the next series is Albumin (Homo sapiens, UniProt P02768). The series is described as follows: Binding affinity to human serum albumin assessed as decrease in emission intensity by fluorescence emission spectrum based Stern-Volmer method. Format: ADME. As to conditions: isolated protein.
Chain of Albumin (P02768 whole entry): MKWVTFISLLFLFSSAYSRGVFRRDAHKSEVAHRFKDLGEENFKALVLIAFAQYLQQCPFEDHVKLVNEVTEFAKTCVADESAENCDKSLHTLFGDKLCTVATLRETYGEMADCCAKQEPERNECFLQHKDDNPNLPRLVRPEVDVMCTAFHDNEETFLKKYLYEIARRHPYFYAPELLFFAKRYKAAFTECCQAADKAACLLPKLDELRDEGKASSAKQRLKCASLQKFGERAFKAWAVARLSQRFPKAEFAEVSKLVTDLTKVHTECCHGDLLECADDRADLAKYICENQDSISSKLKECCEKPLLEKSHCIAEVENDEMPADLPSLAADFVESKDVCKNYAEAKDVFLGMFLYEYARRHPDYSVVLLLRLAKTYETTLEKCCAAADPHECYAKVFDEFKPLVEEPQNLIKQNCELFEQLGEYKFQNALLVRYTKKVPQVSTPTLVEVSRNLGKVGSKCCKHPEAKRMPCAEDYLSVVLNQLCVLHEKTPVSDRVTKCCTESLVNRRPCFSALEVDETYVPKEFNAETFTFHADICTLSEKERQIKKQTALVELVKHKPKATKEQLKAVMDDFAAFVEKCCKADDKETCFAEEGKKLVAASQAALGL
Series [4] deals with HT-29. The series is described as follows: Cytotoxicity against human HT-29 cells assessed as reduction in cell viability after 48 hrs by MTT assay. Conditions: HT-29, 48 h. The class given is functional, cell-based. A general note: Formazan colour is commonly taken as a measure of viable cells.
In series [5] the test system is HepG2. The series is described as follows: Cytotoxicity against human HepG2 cells assessed as reduction in cell viability after 48 hrs by MTT assay. The class given is functional, cell-based. As to conditions: HepG2, 48 h.
A further series deals with HEK293. As to the kind of experiment: Cytotoxicity against HEK293 cells assessed as reduction in cell viability measured after 48 or 72 hrs by MTT assay. Format: cell-based. Conditions: human, hek293, 72 h.
Series [6] deals with HT-29. As to the kind of experiment: Down regulation of carbonic anhydrase 9 protein expression in human HT-29 cells by immunoblotting analysis. Format: functional, cell-based. A general note: A western blot detects proteins with antibodies after separation by electrophoresis.
Series [7] concerns HepG2. As to the kind of experiment: Down regulation of carbonic anhydrase 9 protein expression in human HepG2 cells by immunoblotting analysis. The class given is functional, cell-based.
Series [8] concerns HT-29. The series is described as follows: Down regulation of HIF1-alpha protein expression in human HT-29 cells by immunoblotting analysis. The class given is functional, cell-based.
Series [9] deals with HepG2. The series is described as follows: Down regulation of HIF1-alpha protein expression in human HepG2 cells by immunoblotting analysis. The class given is functional, cell-based.
Series [10] relates to HT-29. As to the kind of experiment: Antimigratory activity against human HT-29 cells assessed as inhibition of cell migration at IC50 concentration after 24 hrs by crystal violet staining microscopy based transwell migration assay. Format: functional.
In series [11] the test system is HepG2. The series is described as follows: Antimigratory activity against human HepG2 cells assessed as inhibition of cell migration at IC50 concentration after 24 hrs by crystal violet staining microscopy based transwell migration assay. Format: functional.
Series [12] relates to HT-29. The series is described as follows: Inhibition of colony formation in human HT-29 cells at IC50 concentration after 10 days by crystal violet staining based colony formation assay. The class given is functional, cell-based.
Series [13] relates to HepG2. The series is described as follows: Inhibition of colony formation in human HepG2 cells at IC50 concentration after 10 days by crystal violet staining based colony formation assay. Format: functional, cell-based.
The subject of series [14] is HT-29. As to the kind of experiment: Effect on ephithelial-mesenchymal transition in human HT-29 cells assessed as decrease in snail expression at IC50 concentration after 48 hrs by immunoblotting analysis. Format: functional, cell-based.
Series [15] relates to HepG2. The series is described as follows: Effect on ephithelial-mesenchymal transition in human HepG2 cells assessed as decrease in snail expression at IC50 concentration after 48 hrs by immunoblotting analysis. Format: functional, cell-based.
The subject of series [16] is HT-29. The series is described as follows: Effect on ephithelial-mesenchymal transition in human HT-29 cells assessed as decrease in slug expression at IC50 concentration after 48 hrs by immunoblotting analysis. The class given is functional, cell-based.
The subject of series [17] is HepG2. As to the kind of experiment: Effect on ephithelial-mesenchymal transition in human HepG2 cells assessed as decrease in slug expression at IC50 concentration after 48 hrs by immunoblotting analysis. Format: functional, cell-based.
Series [18] deals with HT-29. The series is described as follows: Effect on ephithelial-mesenchymal transition in human HT-29 cells assessed as decrease in Zeb1 expression at IC50 concentration after 48 hrs by immunoblotting analysis. The class given is functional, cell-based.
The test system of series [19] is HepG2. The series is described as follows: Effect on ephithelial-mesenchymal transition in human HepG2 cells assessed as decrease in Zeb1 expression at IC50 concentration after 48 hrs by immunoblotting analysis. The class given is functional, cell-based.
Series [20] concerns HT-29. The series is described as follows: Effect on ephithelial-mesenchymal transition in human HT-29 cells assessed as increase in E-cadherin expression at IC50 concentration after 48 hrs by immunoblotting analysis. The class given is functional, cell-based.
The test system of series [21] is HepG2. The series is described as follows: Effect on ephithelial-mesenchymal transition in human HepG2 cells assessed as increase in E-cadherin expression at IC50 concentration after 48 hrs by immunoblotting analysis. The class given is functional, cell-based.
Series [22] deals with HT-29. As to the kind of experiment: Induction of apoptosis in human HT-29 cells assessed as increase in cleaved PARP expression at IC50 concentration after 48 hrs by immunoblotting analysis. The class given is functional, cell-based.
Series [23] concerns HepG2. The series is described as follows: Induction of apoptosis in human HepG2 cells assessed as increase in cleaved PARP expression at IC50 concentration after 48 hrs by immunoblotting analysis. Format: functional, cell-based.
The test system of series [24] is HT-29. As to the kind of experiment: Induction of apoptosis in human HT-29 cells assessed as early apoptotic cells at IC50 concentration after 24 hrs by Annexin V-FITC/propidium iodide staining based flow cytometry (reference value: 0.73%). Format: functional.
Series [25] has as its system HT-29. As to the kind of experiment: Induction of apoptosis in human HT-29 cells assessed as late apoptotic cells at IC50 concentration after 24 hrs by Annexin V-FITC/propidium iodide staining based flow cytometry (reference value: 0.089%). Format: functional.
Series [26] has as its system HT-29. The series is described as follows: Induction of apoptosis in human HT-29 cells assessed as necrotic cells at IC50 concentration after 24 hrs by Annexin V-FITC/propidium iodide staining based flow cytometry (reference value: 0.68%). Format: functional.
Series [27] concerns HepG2. The series is described as follows: Induction of apoptosis in human HepG2 cells assessed as early apoptotic cells at IC50 concentration after 24 hrs by Annexin V-FITC/propidium iodide staining based flow cytometry (reference value: 0%). Format: functional.
Series [28] has as its system HepG2. The series is described as follows: Induction of apoptosis in human HepG2 cells assessed as late apoptotic cells at IC50 concentration after 24 hrs by Annexin V-FITC/propidium iodide staining-based flow cytometric analysis (reference value: 0%). The class given is functional.
The test system of series [29] is HepG2. As to the kind of experiment: Induction of apoptosis in human HepG2 cells assessed as necrotic cells at IC50 concentration after 24 hrs by Annexin V-FITC/propidium iodide staining-based flow cytometric analysis (reference value: 1.14%). Format: functional.
Series [30] concerns HT-29. The series is described as follows: Induction of apoptosis in human HT-29 cells assessed as viable cells at IC50 concentration after 24 hrs by Annexin V-FITC/propidium iodide staining based flow cytometry (reference value: 98.5%). The class given is functional.
Series [31] concerns HepG2. As to the kind of experiment: Induction of apoptosis in human HepG2 cells assessed as viable cells at IC50 concentration after 24 hrs by Annexin V-FITC/propidium iodide staining based flow cytometry (reference value: 98.9%). Format: functional.
Series [32] relates to HT-29. The series is described as follows: Induction of apoptosis in human HT-29 cells at 8.44 uM after 24 hrs by Annexin V-FITC/propidium iodide staining based flow cytometry relative to control. The class given is functional.
For series [33], the system named is HepG2. The series is described as follows: Induction of apoptosis in human HepG2 cells at 11.22 uM after 24 hrs by Annexin V-FITC/propidium iodide staining based flow cytometry relative to control. Format: functional.
Series [34] deals with HT-29. As to the kind of experiment: Down regulation of carbonic anhydrase 9 mRNA expression in human HT-29 cells by RT-PCR analysis. The class given is functional, cell-based.
Series [35] has as its system HepG2. As to the kind of experiment: Down regulation of carbonic anhydrase 9 mRNA expression in human HepG2 cells by RT-PCR analysis. The class given is functional, cell-based.
The species named for series [36] is Homo sapiens. The series is described as follows: Selectivity index, ratio of IC50 for human carbonic anhydrase 2 using p-nitrophenyl acetate as substrate to IC50 for human carbonic anhydrase 9 using p-nitrophenyl acetate as substrate.
For series [37], the species on record is Homo sapiens. The series is described as follows: Selectivity index, ratio of IC50 for human carbonic anhydrase 2 using p-nitrophenyl acetate as substrate to IC50 for human carbonic anhydrase 5A using p-nitrophenyl acetate as substrate by.

Active and inactive are the calls of the source. The calls are words filed in the database; no cut-off is given here. Where only a bound is given, the exact number is not on record here.

One may read the IC50 as the concentration that gives 50% inhibition. In general, Kd refers to the free concentration of one partner at which half of the binding sites on the other are occupied at equilibrium, for simple one-to-one binding.

On to `COc1cc(/C=C/C(=O)O)ccc1OCc1cn(-c2cccc([N+](=O)[O-])c2)nn1`, for which the IC50 was found to be 1.99 µM at Carbonic anhydrase 2; 0.024 µM against Carbonic anhydrase 9 [1]; 1.1 µM in series [2]; 8.44 µM in the series with HT-29 [4]; 11.2 µM with HepG2 [5]. Also, the equilibrium dissociation constant (Kd) at Carbonic anhydrase 9 [3] was 29 µM. The Ka at Albumin is given as 5.46 ×10⁴ /M. For the same compound, the Activity result was “Non-Toxic” in the series on HEK293; 2.29% with HT-29 [24]; 10.5% in the series on HT-29 [25]; 11.6% in the series on HT-29 [26]; 2.17% with HepG2 [27]; 6.6% in the series with HepG2 [28]. The Activity in the series on HepG2 [29] was 10.3%; with HT-29 [30] it was 75.6%; in the series on HepG2 [31] it was 80.9%; in the series with HT-29 [32] it was 24.44%; in the series on HepG2 [33], 19.22%. In addition, the result in the series with HT-29 [6], in the series with HepG2 [7], with HT-29 [8], with HepG2 [9], in the series with HT-29 [10] and in the series on HepG2 [11] was Active. Also, the outcome in the series with HT-29 [14], in the series with HepG2 [15], in the series with HT-29 [16], in the series on HepG2 [17], in the series with HT-29 [18] and in the series on HepG2 [19] was Active. In addition, the outcome with HT-29 [20], in the series on HepG2 [21], with HT-29 [22], in the series with HepG2 [23], in the series with HT-29 [34] and in the series on HepG2 [35] was Active. The inhibition result with HT-29 [12] and in the series on HepG2 [13] was “Active” in each case.
On Carbonic anhydrase 9 [1], `COc1cc(/C=C/C(=O)O)ccc1OCc1cn(-c2ccc(Cl)cc2)nn1` yielded an IC50 of 0.771 µM.
Same read-out and setting: then `COc1cc(/C=C/C(=O)O)ccc1OCc1cn(-c2ccccc2C)nn1`, with 3.64 µM.
On the same count and under the same terms, then `COc1cc(/C=C/C(=O)O)ccc1OCc1cn(-c2cccc(Cl)c2)nn1`, with 1.37 µM; and `COc1cccc(-n2cc(COc3ccc(/C=C/C(=O)O)cc3OC)nn2)c1`, with 1.96 µM.
Same read-out and setting: then `COc1cc(/C=C/C(=O)O)ccc1OCc1cn(-c2ccccc2Cl)nn1`, with 14.5 µM; and `COc1cc(/C=C/C(=O)O)ccc1OCc1cn(-c2ccccc2OC)nn1`, with 2.6 µM; and `COc1cc(/C=C/C(=O)O)ccc1OCc1cn(-c2cccc(C)c2)nn1`, with 5.24 µM.
Take `COc1cc(/C=C/C(=O)O)ccc1O` [FERULATE]: the IC50 came to 6.44 µM against Carbonic anhydrase 2, 9.39 µM against Carbonic anhydrase 9 [1] and 8.86 µM in series [2]. The Ratio IC50 in the series filed under Homo sapiens [36] and in the series listed under Homo sapiens [37] was 0.7 in each case.
On to `COc1cc(/C=C/C(=O)O)ccc1OCc1cn(-c2ccc(F)cc2)nn1`, for which the IC50 against Carbonic anhydrase 9 [1] turned out to be 7.64 µM.
Same read-out and setting: the same measure for `COc1cc(/C=C/C(=O)O)ccc1OCc1cn(-c2ccc([N+](=O)[O-])cc2)nn1`: 1.45 µM.
Still for that read-out and setting: then `COc1cc(/C=C/C(=O)O)ccc1OCc1cn(-c2cccc(F)c2)nn1`, with 12.2 µM.
`COc1ccc(-n2cc(COc3ccc(/C=C/C(=O)O)cc3OC)nn2)cc1` registered an IC50 at Carbonic anhydrase 9 [1] of 4.76 µM.
`COc1cc(/C=C/C(=O)O)ccc1OCc1cn(-c2ccccc2F)nn1`: on Carbonic anhydrase 9 [1], half-maximal inhibition (IC50) was put at 8.94 µM.
Turning to `COc1cc(/C=C/C(=O)O)ccc1OCc1cn(-c2ccccc2)nn1`, the IC50 (against Carbonic anhydrase 2; on Carbonic anhydrase 9 [1]; in [2]) was > 20 µM each time.
The compound `COc1cc(/C=C/C(=O)O)ccc1OCc1cn(-c2ccc(C(=O)O)cc2)nn1` registered an IC50 against Carbonic anhydrase 9 [1] of 0.92 µM.
As for `COc1cc(/C=C/C(=O)O)ccc1OCc1cn(-c2ccccc2[N+](=O)[O-])nn1`, the half-maximal inhibitory concentration (IC50) against Carbonic anhydrase 9 [1] was 2.44 µM.
As for `COc1cc(/C=C/C(=O)O)ccc1OCc1cn(-c2ccc(C)cc2)nn1`, the IC50 against Carbonic anhydrase 9 [1] came out at 4.22 µM.
